# Tested on: amygdala kindled rat model of partial epilepsy
# Test: In Vivo, Amygdala Kindling Assay
# Design: species or system Sprague-Dawley rats
# Text: The development of amygdala kindling is an established model of epileptogenesis. (Amano K, Hamada K, Yagi K, Seino M. Antiepileptic effects of topiramate on amygdaloid kindling in rats. Epilepsy Res. 1998 July;31(2):123-8; Barton M E, White H S. The effect of CGX-1007 and CI-1041, novel NMDA receptor antagonists, on kindling acquisition and expression. Epilepsy Res. 2004 March;59(1):1-12; Loscher W, Honack D, Rundfeldt C. Antiepileptogenic effects of the novel anticonvulsant levetiracetam (ucb L059)in the kindling model of temporal lobe epilepsy. J Pharmacol Exp Ther. 1998 February;284(2):474-9; McNamara J O. Analyses of the molecular basis of kindling development. Psychiatry Clin Neurosci. 1995 June; 49(3):S175-8. Review.; Morimoto K, Katayama K, Inoue K, Sato K. Effects of competitive and noncompetitive NMDA receptor antagonists on kindling and LTP. Pharmacol Biochem Behav. 1991 December;40(4):893-9; Racine, R. J. 1972. Modification of seizure activity by electrical stimulation. II. Motor seizure. Electroencephalogr. Clin. Neurophysiol. 32, 281-294). The kindled rat model of partial epilepsy is an accepted model of epileptogenesis (McNamara J O. Analyses of the molecular basis of kindling development. Psychiatry Clin Neurosci. 1995 June;49(3):S175-8. Review.).
# Briefly, the assay procedure was as follows. Adult male, Sprague-Dawley rats weighing between 250-300 g were obtained from Charles River, Wilmington, Mass. were used for experimental procedures. All animals were housed on a 12:12 light dark cycle and permitted free access to both food (Prolab RMH 3000) and water except when removed from the home cage for experimental procedures. Animals were cared for in a matter consistent with the recommendations detailed in the National Research Council Publication, “Guide for the Care and Use of Laboratory Animals” in a temperature controlled, pesticide-free facility. Kindling stimulations were routinely performed between 9 AM-2 PM to avoid any circadian variations.
# Compound #1 was triturated in a small volume of 0.5% methylcellulose, sonicated for 10 min, and brought to a final volume with 0.5% methylcellulose. The compound was administered systemically (i.p.) in a volume of 0.04 ml/10 g body weight and all tests were conducted at the pre-determined time of peak effect of 0.5 hours after i.p. administration.
# The ability of Compound #1 to block the expression of amygdala kindled seizures was determined. For this study, rats were anaesthetized with a ketamine (120 mg/kg, i.p.) and xylazine (12 mg/kg, i.p.) cocktail. […]
# Amygdala kindling was then performed according to the following protocol (Barton and White, 2004). […] The behavioral seizure score and AD duration was recorded for rats in each treatment group. […]
smiles,measurement,setting,value
"NS(=O)(=O)NCc1csc2ccccc12 [Compound #1, N-(benzo[b]thien-3-ylmethyl)-sulfamide]",behavioral seizure score (Racine scale) at the conclusion of the drug- and stimulus-free period,"100 mg/kg i.p. 30 min before daily amygdala stimulation (200 μA, 2 s) for up to 13 days, re-challenged without drug after one-week stimulus- and drug-free period, n=10 rats, vehicle=4.6±0.24",0.1±0.11
same,"after-discharge (AD) duration over the kindling acquisition phase, versus vehicle","100 mg/kg i.p., daily stimulation, days 1-13, progressive increase in both groups",No statistical difference
same,acquisition of the full generalized kindled seizure,"100 mg/kg i.p., rats, kindling acquisition",prevented the acquisition of the full generalized kindled seizure
same,delay of the acquisition of kindling,"stimulated in the absence of drug after the drug-free week, seizure score rose parallel to vehicle-treated rats",delayed the acquisition of kindling by several days

# From patent US20070191460A1, “Use of Benzo-Heteroaryl Sulfamide Derivatives for the Treatment of Disease Modification / Epileptogenesis” (priority 2006, published 2007)
